The values below come from US12371428B2 (Exelixis, Inc., priority 2019, dated 2025).

Molecules are shown by their SMILES.

Assay [1] deals with Human KDR (residues 790-1356) (Homo sapiens (Human), UniProt P35968). The experiment in a line: Human KDR kinase assay, HTRF KinEase (Example B-2). Format: biochemical. To be noted: protocol of Example B-2 (other compounds). An outline of the steps:
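Human KDR residues 790-1356 (0.1 ng/well) in buffer with 5 mM MgCl2, 1 mM MnCl2, 1 mM DTT, biotinylated peptide substrate, ATP at Km (4.0 μM), 3% DMSO, 10 compound concentrations; 40 min, room temperature. EDTA stop, streptavidin-XL665/Eu-TK antibody HTRF read 665/620 nm; 4-parameter IC50.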
For orientation: Time-resolved FRET reads energy transfer from a long-lived donor to a nearby acceptor.

Assay [2] addresses KDR (phospho-KDR, VEGF165-stimulated HUVEC cells) (Homo sapiens (Human), UniProt P35968). Description: KDR autophosphorylation ELISA in HUVEC cells (Example G). To be noted: cellular activity; KDR autophosphorylation ELISA in HUVEC cells. Format: cell-based. An outline of the steps: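 IC50 values derive from nonlinear curve fitting of phospho-KDR levels measured by ELISA and interpolated from a phosphoprotein standard. Beforehand, starved HUVECs received compound (0.3% DMSO vehicle) for one hour and were activated with VEGF165 at 100 ng/mL for 5 min.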
For orientation: ELISA stands for enzyme-linked immunosorbent assay.

The target of assay [3] is Human MET (residues 956-1390) (Homo sapiens (Human), UniProt P08581). Description: Human Met kinase assay, HTRF KinEase (Example D-2). Format: biochemical. To be noted: protocol of Example D-2 (other compounds); read-out: c-Met IC50. An outline of the steps: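 MET kinase domain (956-1390), 0.1 ng/well, in buffer with 5 mM MgCl2, 1 mM DTT and 1 mM MnCl2, phosphorylated a biotinylated peptide at ATP Km for 40 min at RT; 10 concentrations, 3% DMSO final. EDTA-stopped HTRF read after 60 min; IC50 from a 4-parameter logistic fit.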
Chain of Human MET (residues 956-1390) (P08581 956-1390): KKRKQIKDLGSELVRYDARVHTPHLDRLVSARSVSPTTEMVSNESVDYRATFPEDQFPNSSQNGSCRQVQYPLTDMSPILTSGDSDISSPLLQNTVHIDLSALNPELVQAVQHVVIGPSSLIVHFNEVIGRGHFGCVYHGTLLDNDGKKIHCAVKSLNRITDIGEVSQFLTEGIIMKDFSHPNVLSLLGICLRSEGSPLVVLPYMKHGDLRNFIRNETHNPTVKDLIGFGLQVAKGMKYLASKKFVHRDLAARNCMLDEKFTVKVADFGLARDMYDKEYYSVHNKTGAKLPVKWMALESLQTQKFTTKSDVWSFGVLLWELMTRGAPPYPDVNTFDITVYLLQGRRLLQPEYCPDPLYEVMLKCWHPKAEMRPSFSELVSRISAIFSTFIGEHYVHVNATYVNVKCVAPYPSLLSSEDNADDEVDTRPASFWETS

For assay [4], the target named is Mer (phospho-Mer, MERTK-transfected 293A cells) (Homo sapiens (Human), UniProt Q12866). The experiment in a line: Mer autophosphorylation ELISA in transient transfected 293A cells (Example H). To be noted: cellular activity; Mer autophosphorylation ELISA in transient transfected 293A cells. Format: cell-based. Put shortly:
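293A cells transiently transfected with human MERTK were treated 1 h in serum-free medium with an 8-point compound dilution (0.3% DMSO final). Lysates were assayed by phospho-Mer sandwich ELISA against a phospho-Mer standard; IC50 came from a 4-parameter logistic fit, normalised to DMSO (100%) and reference-inhibitor (0%) controls.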

Chain of KDR (phospho-KDR, VEGF165-stimulated HUVEC cells) (P35968 20-1356): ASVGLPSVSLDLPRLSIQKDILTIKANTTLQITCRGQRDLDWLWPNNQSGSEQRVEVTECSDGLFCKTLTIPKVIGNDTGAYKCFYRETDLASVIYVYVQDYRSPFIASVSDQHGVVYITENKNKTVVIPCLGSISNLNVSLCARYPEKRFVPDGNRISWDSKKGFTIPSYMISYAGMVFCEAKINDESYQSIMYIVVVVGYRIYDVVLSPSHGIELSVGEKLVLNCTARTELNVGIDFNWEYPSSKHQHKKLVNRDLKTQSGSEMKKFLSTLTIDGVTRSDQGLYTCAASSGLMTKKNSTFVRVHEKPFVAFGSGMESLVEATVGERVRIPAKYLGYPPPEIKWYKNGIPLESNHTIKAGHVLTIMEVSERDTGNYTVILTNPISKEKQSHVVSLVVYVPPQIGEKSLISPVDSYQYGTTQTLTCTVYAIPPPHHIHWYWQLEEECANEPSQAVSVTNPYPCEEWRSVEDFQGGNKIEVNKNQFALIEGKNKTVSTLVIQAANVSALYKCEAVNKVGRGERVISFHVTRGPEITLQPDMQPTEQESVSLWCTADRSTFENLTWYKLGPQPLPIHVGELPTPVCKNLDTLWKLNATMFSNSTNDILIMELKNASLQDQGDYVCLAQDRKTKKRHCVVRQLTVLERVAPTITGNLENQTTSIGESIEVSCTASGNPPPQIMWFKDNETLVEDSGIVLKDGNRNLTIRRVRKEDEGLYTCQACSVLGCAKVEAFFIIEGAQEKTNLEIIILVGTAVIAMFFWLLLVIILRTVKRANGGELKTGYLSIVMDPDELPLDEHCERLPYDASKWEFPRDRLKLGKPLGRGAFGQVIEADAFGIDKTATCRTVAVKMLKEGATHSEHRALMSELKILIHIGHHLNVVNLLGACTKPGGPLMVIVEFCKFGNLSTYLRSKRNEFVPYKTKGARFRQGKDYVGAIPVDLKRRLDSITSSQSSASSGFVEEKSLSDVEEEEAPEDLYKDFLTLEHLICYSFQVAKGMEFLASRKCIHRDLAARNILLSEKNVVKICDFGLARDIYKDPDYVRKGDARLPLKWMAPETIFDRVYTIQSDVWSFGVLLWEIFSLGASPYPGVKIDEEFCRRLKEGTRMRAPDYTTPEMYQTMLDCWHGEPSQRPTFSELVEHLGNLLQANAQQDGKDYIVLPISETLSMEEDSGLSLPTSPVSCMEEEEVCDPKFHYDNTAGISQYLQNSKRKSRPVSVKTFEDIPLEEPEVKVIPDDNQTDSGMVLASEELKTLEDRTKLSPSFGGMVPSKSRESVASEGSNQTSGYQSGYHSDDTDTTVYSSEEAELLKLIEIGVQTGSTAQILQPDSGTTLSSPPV
Chain of Human KDR (residues 790-1356) (P35968 790-1356): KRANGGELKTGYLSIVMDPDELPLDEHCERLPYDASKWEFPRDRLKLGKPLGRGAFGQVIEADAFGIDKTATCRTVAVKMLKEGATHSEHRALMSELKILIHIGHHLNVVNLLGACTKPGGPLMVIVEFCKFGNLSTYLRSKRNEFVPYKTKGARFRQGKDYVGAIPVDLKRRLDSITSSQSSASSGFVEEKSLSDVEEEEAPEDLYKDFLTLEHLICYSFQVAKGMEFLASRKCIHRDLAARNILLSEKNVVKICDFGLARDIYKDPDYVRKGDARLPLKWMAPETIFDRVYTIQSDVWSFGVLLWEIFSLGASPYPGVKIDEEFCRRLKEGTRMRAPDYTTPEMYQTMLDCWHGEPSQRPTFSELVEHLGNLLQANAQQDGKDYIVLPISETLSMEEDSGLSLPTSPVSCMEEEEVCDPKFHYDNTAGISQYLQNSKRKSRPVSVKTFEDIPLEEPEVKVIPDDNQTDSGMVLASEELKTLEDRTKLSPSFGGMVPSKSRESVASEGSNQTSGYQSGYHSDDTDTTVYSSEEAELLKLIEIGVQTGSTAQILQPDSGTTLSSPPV
Chain of Mer (phospho-Mer, MERTK-transfected 293A cells) (Q12866 21-999): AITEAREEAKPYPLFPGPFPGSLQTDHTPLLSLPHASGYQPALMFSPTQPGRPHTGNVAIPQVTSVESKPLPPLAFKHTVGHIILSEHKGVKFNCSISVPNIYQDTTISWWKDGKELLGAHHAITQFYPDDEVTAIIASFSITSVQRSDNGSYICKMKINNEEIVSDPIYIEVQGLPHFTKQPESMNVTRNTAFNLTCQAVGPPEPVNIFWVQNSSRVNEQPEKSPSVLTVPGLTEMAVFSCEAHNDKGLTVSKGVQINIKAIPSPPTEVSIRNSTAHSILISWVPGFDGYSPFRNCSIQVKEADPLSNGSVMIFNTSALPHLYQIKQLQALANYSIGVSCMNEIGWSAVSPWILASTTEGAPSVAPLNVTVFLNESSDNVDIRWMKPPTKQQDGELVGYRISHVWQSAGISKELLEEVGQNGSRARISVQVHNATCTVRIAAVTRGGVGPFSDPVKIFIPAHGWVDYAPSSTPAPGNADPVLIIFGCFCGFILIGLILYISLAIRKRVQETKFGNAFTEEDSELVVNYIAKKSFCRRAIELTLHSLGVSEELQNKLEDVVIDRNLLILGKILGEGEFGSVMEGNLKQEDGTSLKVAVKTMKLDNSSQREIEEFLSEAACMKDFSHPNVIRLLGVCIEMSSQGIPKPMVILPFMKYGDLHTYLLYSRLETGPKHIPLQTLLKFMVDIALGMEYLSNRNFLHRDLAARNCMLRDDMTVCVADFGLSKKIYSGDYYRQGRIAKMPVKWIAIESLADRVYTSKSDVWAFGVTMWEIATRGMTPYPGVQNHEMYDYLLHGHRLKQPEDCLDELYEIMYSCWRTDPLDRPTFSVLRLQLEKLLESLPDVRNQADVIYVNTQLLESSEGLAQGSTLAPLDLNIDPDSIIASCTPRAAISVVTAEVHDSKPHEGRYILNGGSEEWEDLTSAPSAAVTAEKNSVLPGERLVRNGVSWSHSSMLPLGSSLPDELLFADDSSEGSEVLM

Broadly, the IC50 is the concentration at which inhibition is half-maximal. As for `COc1cc2nccc(Oc3ccc(NC(=O)c4cnc(C)n(-c5ccc(F)cc5)c4=O)cc3F)c2nc1OC` [Compound 97, N-[4-[(6,7-Dimethoxy-1,5-naphthyridin-4-yl)oxy]-3-fluorophenyl]-1-(4-fluorophenyl)-2-methyl-6-oxopyrimidine-5-carboxamide], the IC50 in assay [1], in assay [2], in assay [3] and in assay [4] was less than 100 nM each time.
On to `COc1cc2nccc(Oc3ccc(NC(=O)c4c(C)ncn(-c5ccc(F)cc5)c4=O)cc3F)c2nc1OC` [Compound 98, N-[4-[(6,7-Dimethoxy-1,5-naphthyridin-4-yl)oxy]-3-fluorophenyl]-1-(4-fluorophenyl)-4-methyl-6-oxopyrimidine-5-carboxamide], for which the IC50 in assay [1], in assay [2], in assay [3] and in assay [4] was less than 100 nM throughout.
As to `COc1cc2nccc(Oc3ccc(NC(=O)c4cncc(-c5ccc(F)cc5)c4O)cc3)c2nc1OC` [Compound 118, N-[4-[(6,7-Dimethoxy-1,5-naphthyridin-4-yl)oxy]phenyl]-5-(4-fluorophenyl)-4-hydroxypyridine-3-carboxamide], the IC50 in assay [1], in assay [2], in assay [3] and in assay [4] was less than 100 nM in each case.
Consider `COc1cc2nccc(Oc3ccc(NC(=O)c4cn(C(C)C)c(C)c(-c5ccc(F)cc5)c4=O)cc3)c2nc1OC` [Compound 115, N-[4-[(6,7-Dimethoxy-1,5-naphthyridin-4-yl)oxy]phenyl]-5-(4-fluorophenyl)-6-methyl-4-oxo-1-propan-2-ylpyridine-3-carboxamide], for which the IC50 in assay [1] is less than 100 nM; in assay [2] it was greater than 300 nM; in assay [3], less than 100 nM; in assay [4], less than 100 nM.
With `CCn1cc(C(=O)Nc2ccc(Oc3ccnc4cc(OC)ccc34)c(F)c2)c(=O)c(-c2ccc(F)cc2)c1C` [Compound 107, 1-Ethyl-N-[3-fluoro-4-(7-methoxyquinolin-4-yl)oxyphenyl]-5-(4-fluorophenyl)-6-methyl-4-oxopyridine-3-carboxamide], the IC50 in assay [1] is greater than 300 nM; in assay [2], 100 to 300 nM; in assay [3], less than 100 nM; in assay [4], less than 100 nM.
Consider `COc1ccc2c(Oc3ccc(NC(=O)c4cnc(C)c(-c5ccc(F)cc5)c4O)cc3F)ccnc2c1` [Compound 105, N-[3-Fluoro-4-(7-methoxyquinolin-4-yl)oxyphenyl]-5-(4-fluorophenyl)-4-hydroxy-6-methylpyridine-3-carboxamide], for which the IC50 in assay [1] is 100 to 300 nM; in assay [2] it was less than 100 nM; in assay [3] it was less than 100 nM; in assay [4] it was less than 100 nM.
For the compound `COc1cc2nccc(Oc3ccc(NC(=O)c4c(C)nc(C)n(-c5ccc(F)cc5)c4=O)cc3F)c2nc1OC` [Compound 101, N-[4-[(6,7-Dimethoxy-1,5-naphthyridin-4-yl)oxy]-3-fluorophenyl]-1-(4-fluorophenyl)-2,4-dimethyl-6-oxopyrimidine-5-carboxamide], the IC50 in assay [1], in assay [2], in assay [3] and in assay [4] was less than 100 nM throughout.
Regarding `CCn1cc(C(=O)Nc2ccc(Oc3ccnc4cc(OC)c(OC)nc34)c(F)c2)c(=O)c(-c2ccc(F)cc2)c1` [Compound 116, N-[4-[(6,7-Dimethoxy-1,5-naphthyridin-4-yl)oxy]-3-fluorophenyl]-1-ethyl-5-(4-fluorophenyl)-4-oxopyridine-3-carboxamide], the IC50 in assay [1], in assay [2], in assay [3] and in assay [4] was less than 100 nM in each case.
For the compound `COc1cnc2c(Oc3ccc(NC(=O)c4cn(C)c(C)c(-c5ccc(F)cc5)c4=O)cc3)ccnc2c1` [Compound 111, 5-(4-Fluorophenyl)-N-[4-[(7-methoxy-1,5-naphthyridin-4-yl)oxy]phenyl]-1,6-dimethyl-4-oxopyridine-3-carboxamide], the IC50 was greater than 300 nM in assay [1], greater than 300 nM in assay [2], less than 100 nM in assay [3] and less than 100 nM in assay [4].
Regarding `COc1ccc2c(Oc3ccc(NC(=O)c4cn(C(C)C)c(C)c(-c5ccc(F)cc5)c4=O)cc3F)ccnc2c1` [Compound 106, N-[3-Fluoro-4-(7-methoxyquinolin-4-yl)oxyphenyl]-5-(4-fluorophenyl)-6-methyl-4-oxo-1-propan-2-ylpyridine-3-carboxamide], the 50% inhibitory concentration (IC50) is greater than 300 nM in assay [1], 100 to 300 nM in assay [2], less than 100 nM in assay [3] and less than 100 nM in assay [4].
Regarding `COc1cc2nccc(Oc3ccc(NC(=O)c4c[nH]c(=O)n(-c5ccc(F)cc5)c4=O)cc3F)c2nc1OC` [Compound 102, N-[4-[(6,7-Dimethoxy-1,5-naphthyridin-4-yl)oxy]-3-fluorophenyl]-3-(4-fluorophenyl)-2,4-dioxo-1H-pyrimidine-5-carboxamide], the IC50 in assay [1], in assay [2], in assay [3] and in assay [4] was less than 100 nM throughout.
`COc1ccc2nccc(Oc3ccc(NC(=O)c4cn(C)c(C)c(-c5ccc(F)cc5)c4=O)cc3F)c2n1` [Compound 113, N-[3-Fluoro-4-[(6-methoxy-1,5-naphthyridin-4-yl)oxy]phenyl]-5-(4-fluorophenyl)-1,6-dimethyl-4-oxopyridine-3-carboxamide]: the IC50 in assay [1] was greater than 300 nM; in assay [2], greater than 300 nM; in assay [3] it was 100 to 300 nM; in assay [4] it was less than 100 nM.
Turning to `COc1cc2nccc(Oc3ccc(NC(=O)c4cn(CCO)cc(-c5ccc(F)cc5)c4=O)cc3F)c2nc1OC` [Compound 117, N-[4-[(6,7-Dimethoxy-1,5-naphthyridin-4-yl)oxy]-3-fluorophenyl]-5-(4-fluorophenyl)-1-(2-hydroxyethyl)-4-oxopyridine-3-carboxamide], the IC50 in assay [1], in assay [2], in assay [3] and in assay [4] was less than 100 nM throughout.
For the compound `COc1ccc2c(Oc3ccc(NC(=O)c4cnc(C)c(-c5ccc(F)cc5)c4O)cc3)ccnc2c1` [Compound 108, 5-(4-Fluorophenyl)-4-hydroxy-N-[4-(7-methoxyquinolin-4-yl)oxyphenyl]-6-methylpyridine-3-carboxamide], the IC50 in assay [1], in assay [2], in assay [3] and in assay [4] was less than 100 nM throughout.
Take `COc1cnc2c(Oc3ccc(NC(=O)c4cn(C)cc(-c5ccc(F)cc5)c4=O)cc3F)ccnc2c1` [Compound 112, N-[3-Fluoro-4-[(7-methoxy-1,5-naphthyridin-4-yl)oxy]phenyl]-5-(4-fluorophenyl)-1-methyl-4-oxopyridine-3-carboxamide]: the IC50 was greater than 300 nM in assay [1], greater than 300 nM in assay [2], less than 100 nM in assay [3] and less than 100 nM in assay [4].
Turning to `COc1cc2nccc(Oc3ccc(NC(=O)c4cnc(N(C)C)n(-c5ccc(F)cc5)c4=O)cc3F)c2nc1OC` [Compound 100, N-[4-[(6,7-Dimethoxy-1,5-naphthyridin-4-yl)oxy]-3-fluorophenyl]-2-(dimethylamino)-1-(4-fluorophenyl)-6-oxopyrimidine-5-carboxamide], the IC50 in assay [1], in assay [2], in assay [3] and in assay [4] was less than 100 nM in each case.
Take `COc1cc2nccc(Oc3ccc(NC(=O)c4cnc(C)c(-c5ccc(F)cc5)c4O)cc3F)c2cc1OC` [Compound 109, N-[4-(6,7-Dimethoxyquinolin-4-yl)oxy-3-fluorophenyl]-5-(4-fluorophenyl)-4-hydroxy-6-methylpyridine-3-carboxamide]: the IC50 in assay [1], in assay [2], in assay [3] and in assay [4] was less than 100 nM in each case.
